# Results: patent US8722714B2, “Oxazolidine derivatives as NMDA antagonists” (The Honk Kong University of Science and Technology, priority 2008, dated 2014)
# Tests used:
# adenosine A3 receptor = target: T1, adenosine A3 receptor (Homo sapiens, UniProt P0DMS8); experiment: Ligand binding assay (High-throughput Profile, CEREP); conditions: [125I]AB-MECA, human A3 overexpressing cells
# T1 sequence (P0DMS8 1-318): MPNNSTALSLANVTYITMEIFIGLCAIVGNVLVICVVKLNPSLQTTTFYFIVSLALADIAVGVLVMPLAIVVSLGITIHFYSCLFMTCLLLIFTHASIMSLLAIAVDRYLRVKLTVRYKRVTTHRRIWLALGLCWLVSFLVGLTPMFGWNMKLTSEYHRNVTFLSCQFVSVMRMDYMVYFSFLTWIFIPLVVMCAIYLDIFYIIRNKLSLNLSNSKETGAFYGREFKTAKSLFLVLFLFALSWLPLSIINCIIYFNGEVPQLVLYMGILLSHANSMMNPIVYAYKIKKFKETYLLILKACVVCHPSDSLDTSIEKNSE
# Method: (§1) To determine the pharmacological profile and potential targets of LC-02, 80 binding assays were performed (High-throughput Profile, CEREP, France). LC-02 was evaluated at a single concentration in these specific binding assays. […] A cutoff of 25% is considered as a moderate effect.
# (§2) Compound LC-02 (10 μM) was subjected to ligand binding assays with human A3 and rat kappa receptor overexpressing cells. Results are expressed as a percent of control specific agonist response [100-(measured specific response/control specific agonist response)×100] obtained in the presence of LC-02.
# opioid kappa receptor = opioid kappa receptor (Rattus norvegicus, UniProt P34975); experiment: as above
# Method: as §1, §2
# AKT = experiment: Western blot detection of AKT phosphorylation in rat cortical neurons; assay type: cell-based; conditions: 500 μM; rat cortical neurons 11 DIV
# Method: (§3) Embryonic day 18 Sprague Dawley rat pups were decapitated, their brains removed, and the cortices were isolated. Tissues were triturated and isolated neurons were plated onto 60 mm plate and cultured with Neurobasal medium supplemented with 2% B27 (Invitrogen). Experiments were performed after 10-12 days in vitro (DIV). Cultured cells were stimulated with a test compound or vehicle control (DMSO) for different time intervals and then lysed with RIPA buffer including protease inhibitors. Cell lysates were stored at −80° C. before use. Before being loaded, the lysates were heated to 95° C. for 10 min, vortexed and centrifuged for 7 min at 15,000×g. Supernatants were electrophoresed on 10% SDS-polyacrylamide gel and transblotted to nitrocellulose membrane. The membranes were washed with 5% (w/v) powdered milk dissolved in PBS with 0.1% Triton X-100, followed by incubation at 4° C. overnight with rabbit polyclonal against phospho-ERK or phosphor-AKT (1:1000, Cell Signaling Technology). Next, the membranes were washed and incubated with horseradish peroxidase (HRP)-conjugated secondary antibodies. The signal was visualized using ECL Western Blotting Kit. Blots were stripped and probed for total ERK or AKT expression. […]
# (§4) Western blot analysis was performed on the total cell lysates. Antibodies against phospho-ERK1/2 and phospho-AKT were used and detected with HRP conjugated secondary antibodies. […]
# MCAO rats = experiment: Middle cerebral artery occlusion (MCAO) model: mNSS, infarct volume, edema volume; assay type: in vivo, rat; conditions: for edema volume (% of the ipsilateral hemisphere) / infarct volume: 2 h MCAO; for infarct volume: mean±S.E.M.
# Method: Before surgery, male rats were 259-354 g fasted overnight with free access to water. Briefly, rats were anesthetized with chloral hydrate (400 mg/kg, ip). Through a midline neck incision, the right common and external carotid artery were isolated from muscles and coagulated. A suture with a blunted tip was inserted into the internal carotid through the external carotid artery stump and advanced up to 21 mm or till resistance was […]. A thermostatically regulated heating pad was used to maintain temperature at 37° C. After 2 h of MCAO, the suture was removed to restore blood flow. In sham group, the same surgical procedure was performed except that the suture was introduced into the external carotid artery but not advanced. After surgery, the incision was sutured and the rats were returned to their cage with free access to water and food.
# Neurological function of ischemic rats was graded on modified Neurological Severity Score (mNSS) system in a range of 0 to 18 (normal score, 0; maximal deficit score, 18). The mNSS system is a composite evaluation of motor and sensory function, balance impairment and reflex abnormality of ischemic animals (Chen et al., 2001 Intravenous administration of human umbilical cord blood reduces behavioral deficits after stroke in rats. Stroke 32:2682-8.). In the severity scores of injury, 1 score point is awarded for the inability to perform the test or for the lack of a tested reflex; thus, the higher the score, the more severe is the injury.
# At 3 days after ischemia, whole brains were rapidly removed. The brain were sliced into 2-mm-thick coronal sections and stained with 1% 2,3,5-triphenyltetrazoliumchloride (TTC, Sigma) at 37° C. for 30 minutes in the dark, followed by fixation with 4% paraformaldehyde (PFA) at 4° C. overnight. The sections were scanned with scanner connected to a computer. The unstained areas, defined as infarct tissue, were calculated by using an image analysis program. The infarct volume was calculated by measuring the unstained area in each slice. The infarct area in each slice was calculated by subtracting the normal ipsilateral (ischemic) area from that of the contralateral (non-ischemic) hemisphere to reduce errors due to cerebral edema and was presented as a percentage relative to the area of the contralateral hemisphere.
# The contralateral hemispheric volume was used as a control for calculation of ischemia-induced brain edema in the ipsilateral hemisphere. A net difference in hemispheric volumes was gained by subtracting the volume of the […] from that of the infracted hemisphere. Brain swelling was expressed as a percentage of the net difference in ischemic hemispheric volume over the contralateral hemispheric volume.
# Rats were subjected to middle cerebral artery occlusion (MCAO) to induce focal cerebral ischemia. Neurological functions of these ischemic rats were then graded on a modified Neurological Severity Score (mNSS) system from a range of 0 to 18 (normal score, 0; maximal deficit score, 18). The mNSS system is a composite evaluation of motor and sensory function, balance impairment and reflex abnormality of ischemic animals. […]
# 3 days after ischemia, whole brains were rapidly removed, sliced into 2-mm-thick coronal sections, stained with 1% 2,3,5-triphenyltetrazoliumchloride (TTC) and fixed (FIG. 6a). […] Infarct volume was measured in the coronal brain sections.
# Infarct volume and edema volume were also measured. […]
# ERK = experiment: Western blot detection of ERK phosphorylation in rat cortical neurons; assay type: cell-based; conditions: 500 μM; rat cortical neurons 11 DIV; vs DMSO control
# Method: as §3, §4
# mice = experiment: Open Field Test (OFT); assay type: in vivo; conditions: 100 mg/kg p.o., 7 times, vs control group
# Chain of opioid kappa receptor (P34975 whole entry): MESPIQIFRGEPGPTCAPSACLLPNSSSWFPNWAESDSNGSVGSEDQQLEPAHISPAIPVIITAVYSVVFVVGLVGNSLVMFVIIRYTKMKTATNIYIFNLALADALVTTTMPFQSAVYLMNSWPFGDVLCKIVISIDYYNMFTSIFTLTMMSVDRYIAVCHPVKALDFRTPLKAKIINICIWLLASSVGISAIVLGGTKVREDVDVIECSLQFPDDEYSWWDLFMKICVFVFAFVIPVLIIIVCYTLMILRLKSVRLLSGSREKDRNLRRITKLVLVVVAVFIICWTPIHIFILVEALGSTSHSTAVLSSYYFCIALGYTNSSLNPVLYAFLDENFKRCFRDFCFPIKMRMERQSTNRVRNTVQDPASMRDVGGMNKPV
compound,measurement,setting,value
CC[C@H]1N[C@@H](CC(C)C)C(CC)(CC)O1 [LC-02],inhibition at 10 µM,adenosine A3 receptor,30%
same,% of inhibition of ligand binding,"opioid kappa receptor; 10 μM, [3H]U 69593, rat kappa receptor overexpressing cells",26%
same,inhibition at 10 µM,"opioid kappa receptor; [3H]U 69593, rat kappa receptor overexpressing cells",30%
same,phosphorylation of AKT,AKT,phosphorylated within 5-15 min
same,edema volume (% of the ipsilateral hemisphere),MCAO rats; 35 mg/kg,2.44±0.43%
same,infarct volume,MCAO rats; 35 mg/kg,34.45%±3.38%
same,"functional recovery, modified Neurological Severity Score (mNSS)","MCAO rats; 70 mg/kg oral, 24, 48 and 72 hours after MCAO, vs vehicle",significantly improved functional recovery
same,edema volume (% of the ipsilateral hemisphere),MCAO rats; 70 mg/kg,2.85±0.80%
same,infarct volume,"MCAO rats; 70 mg/kg, P<0.01",18.49%±2.34%
same,phosphorylation of ERK,ERK,induced phosphorylation of ERK after a 15-min treatment period and persisted to 60 min
same,total distance travelled in the open field,mice,did not significantly differ
